Counter-ions that a name gives are not always drawn. Each block holds one molecule with its values, some of them ahead of it.
Legend:
[1] = Aerosol performance of composite spray dried particles, Next Generation Impactor, medium resistance RS01 DPI; type: physicochemical; conditions: spray dried powder, RS01 device
Experimental: (§1) The aerosol performance of the composite spray dried particles was determined using cascade impaction, specifically as Next Generation Impactor, as prescribed by the United States Pharmacopeia chapter 601. For these studies, a medium resistance Model 7 RS01 dry powder inhaler (DPI) manufactured by Berry Global Osnago was utilized. 20 mg of the spray dried powders (1:2 CFZ-AMK, 1:4 CFZ-AMK, or 1:8 CFZ-AMK) or 10 mg of air jet milled clofazimine or spray dried amikacin sulfate alone was loaded into a size 3 hydroxypropyl methylcellulose (HPMC) capsule. For these studies, spray dried clofazimine was not tested due to the extremely low powder yield and the tendency of the particles to dry as large needle structures. The device was actuated at an airflow rate to induce a 4 kPa pressure drop (i.e., 80 L/min) or 2 kPa pressure drop (i.e., 56.6 L/min) through the device for period of time sufficient to draw 4 L of air through the apparatus. To reduce particle bounce and re-entrainment, the NGI plates were coated with 1% (v/v) glycerin in ethanol and allowed to dry prior to performing the experiment. After actuation, powder was collected from the capsule, device, induction port, and stages of the Next Generation Impactor by adding a volume of 75/25 acetonitrile/water containing 0.16 mg/mL polysorbate 80 that was sufficient to dissolve the deposited powder. Phase separation of the solution into an organic phase containing clofazimine and an aqueous phase containing amikacin was induced by adding a volume of 5 M ammonium acetate equivalent to 16.7% of the original solution volume. The organic and aqueous phases were analyzed using high pressure liquid chromatography and concentration of each drug was quantified using a previously prepared standard curve.
(§2) Stage 1-7 cut-off diameters were determined using equation 1 and MOC cut-off diameters were determined using equation 2.
(§3) where D50,Q is the cutoff diameter at the flow rate, Q, and the subscript, n, refers to the archival reference value for Qn=60 L/min, and the values for the exponent, x, were determined by the archival NGI stage cut size-flow rate calculations, as determined by Marple et al.
(§4) The emitted fraction (EF) was calculated as the total drug emitted from the device as a percentage of the total mass of drug collected (i.e., recovered dose). The respirable fraction that was less than 5 μm aerodynamic diameter and less than 3 μm aerodynamic diameter corresponded to the percentage of the recovered dose predicted to have the aerodynamic diameter below 5 μm and 3 μm. The respirable fraction values were interpolated from a graph with the cumulative percentage of the emitted dose deposited downstream from an NGI stage as the ordinate and the particle cutoff size of that stage as the abscissa. For each sample, the mass median aerodynamic diameter (MMAD), which represents the mass-based median point of the aerodynamic particle size distribution (APSD), and geometric standard deviation (GSD), which represents the spread of the APSD, were determined by plotting the cumulative percentage of mass less than the stated aerodynamic size cut (expressed as Probits) against the aerodynamic diameter (log scale). Distributions were log normal. A linear regression was performed to determine the aerodynamic diameters corresponding to the 50% percentile (Probit 5) to determine the MMAD, and the aerodynamic diameters corresponding the 15.87% percentile (Probit 4) and 84.13% percentile (Probit 6) to calculate the GSD. The results of this analysis are shown in Tables 11-14 and FIG. 11, and are presented as mean±standard deviation (n=3)

[2] = Aerosol performance of clofazimine and amikacin co-administered from dual chamber Dualhaler DPI, Next Generation Impactor; type: physicochemical; conditions: Dualhaler device
[3] = test system: Mab-infected THP-1 macrophages; assay: In vitro efficacy study, micronized CFZ particles added to media containing AMK; type: cell-based, Mycobacterium abscessus (Mab)
[4] = Aerosol performance of physical blends, Next Generation Impactor, medium resistance RS01 DPI; type: physicochemical; conditions: RS01 device
Experimental: as §1, with “physically blended mixtures” for “composite spray dried particles”, “physical blends (1:0.5 CFZ-AMK, 1:2” for “spray dried powders (1:2”, “air jet milled” for “spray dried”, “capsule.” for “capsule. For these studies, spray dried clofazimine was not tested due to the extremely low powder yield and the tendency of the particles to dry as large needle structures.”
as §2, §3
as §4, with “Table 5-8” for “Tables 11-14”, “2,” for “11,”

[5] = Geometric particle size distribution by laser diffraction (Sympatec HELOS, RODOS dry dispersion); type: physicochemical; conditions: micronized with Model 00 Jet-O-Mizer Air Jet Mill
Experimental: PSD was calculated using Fraunhofer theory using the Sympatec laser diffractor. […] Measurements were taken every 5 msec […] following powder dispersion. Measurements that were between 5-25% optical density were averaged to determine particle size distribution. Data was analyzed using HELOS software version 5.6.0.0 with an HRLD model to convert the scattering pattern to a particle size distribution.

[6] = cited from earlier work
[7] = Solubility of the drug substances in solvents; type: physicochemical; conditions: ethanol and isopropanol, organic solvent or mixture
[8] = in vivo, po; cited from earlier work
[9] = in vivo, po; cited from earlier work; remark: listed apart in the source
[10] = 4 kPa pressure drop, amikacin component
[11] = 4 kPa pressure drop, clofazimine component as titled (Table 13, reference Spray dried AMK-S alone)
[12] = 2 kPa pressure drop, clofazimine component
[13] = 4 kPa pressure drop, clofazimine component (Table 12)
[14] = 2 kPa pressure drop, amikacin component as titled (Table 18, reference Jet milled CFZ alone)
[15] = 4 kPa pressure drop, clofazimine component
[16] = 2 kPa pressure drop, amikacin component as titled (Table 8, reference Jet milled CFZ alone)
[17] = 2 kPa pressure drop, amikacin component (Table 17)
[18] = 2 kPa pressure drop, amikacin component (Table 7)

Structure (SMILES): NCC[C@H](O)C(=O)NC1C[C@H](N)[C@@H](O[C@H]2O[C@H](CN)[C@H](O)[C@H](O)[C@H]2O)[C@H](O)[C@H]1O[C@H]1O[C@H](CO)[C@@H](O)[C@H](N)[C@H]1O (stereo partly drawn) [Jet milled AMK-S alone, (2S)-4-amino-N-[(2S,3S,4R,5S)-5-amino-2-[(2S,3R,4S,5S,6R)-4-amino-3,5-dihydroxy-6-(hydroxymethyl)oxan-2-yl]oxy-4-[(2R,3R,4S,5R,6R)-6-(aminomethyl)-3,4,5-trihydroxy-oxan-2-yl]oxy-3-hydroxy-cyclohexyl]-2-hydroxybutanamide]
EF (emitted fraction) [2, 17]: 14.1 ± 23.7%
RF < 3 μm [2, 17]: 15.5 ± 2.4%
RF < 5 μm [2, 17]: 23.4 ± 4.6%
EF (emitted fraction) [2, 10]: 47.8 ± 13.8%
RF < 3 μm [2, 10]: 22.6 ± 1.4%
RF < 5 μm [2, 10]: 28.6 ± 1.5%
EF (emitted fraction) [4, 18]: 77.2 ± 11.2%
MMAD [4, 18]: 8.23 ± 0.57 μm
RF < 3 μm [4, 18]: 30.4 ± 3.4%
RF < 5 μm [4, 18]: 48.3 ± 3.8%
EF (emitted fraction) [4, 10]: 82.1 ± 1.2%
MMAD [4, 10]: 9.07 ± 1.76 μm
RF < 3 μm [4, 10]: 28.2 ± 4.9%
RF < 5 μm [4, 10]: 40.8 ± 7.2%

Structure (SMILES): NCC[C@H](O)C(=O)NC1C[C@H](N)[C@@H](O[C@H]2O[C@H](CN)[C@H](O)[C@H](O)[C@H]2O)[C@H](O)[C@H]1O[C@H]1O[C@H](CO)[C@@H](O)[C@H](N)[C@H]1O (stereo partly drawn) [AMK sulfate, (2S)-4-amino-N-[(2S,3S,4R,5S)-5-amino-2-[(2S,3R,4S,5S,6R)-4-amino-3,5-dihydroxy-6-(hydroxymethyl)oxan-2-yl]oxy-4-[(2R,3R,4S,5R,6R)-6-(aminomethyl)-3,4,5-trihydroxy-oxan-2-yl]oxy-3-hydroxy-cyclohexyl]-2-hydroxybutanamide]
X50 particle diameter [5]: 4.04 μm
X90 particle diameter [5]: 7.72 μm

Now from value to molecule, other results behind:

EF (emitted fraction) [1, 10]: 61.9 ± 8.6%
MMAD [1, 10]: 6.23 ± 0.97 μm
RF < 3 μm [1, 10]: 44.5 ± 3.6%
RF < 5 μm [1, 10]: 50.8 ± 5.8%
EF (emitted fraction) [1, 11]: 43.3 ± 8.7%
MMAD [1, 11]: 11.29 ± 2.93 μm
RF < 3 μm [1, 11]: 31.8 ± 6.9%
RF < 5 μm [1, 11]: 37.6 ± 6.2%
Structure (SMILES): NCC[C@H](O)C(=O)NC1C[C@H](N)[C@@H](O[C@H]2O[C@H](CN)[C@H](O)[C@H](O)[C@H]2O)[C@H](O)[C@H]1O[C@H]1O[C@H](CO)[C@@H](O)[C@H](N)[C@H]1O (stereo partly drawn) [Spray dried AMK-S alone, (2S)-4-amino-N-[(2S,3S,4R,5S)-5-amino-2-[(2S,3R,4S,5S,6R)-4-amino-3,5-dihydroxy-6-(hydroxymethyl)oxan-2-yl]oxy-4-[(2R,3R,4S,5R,6R)-6-(aminomethyl)-3,4,5-trihydroxy-oxan-2-yl]oxy-3-hydroxy-cyclohexyl]-2-hydroxybutanamide]

EF (emitted fraction) [1, 12]: 80.7 ± 9.7%
MMAD [1, 12]: 10.08 ± 7.79 μm
RF < 3 μm [1, 12]: 37.5 ± 18.2%
RF < 5 μm [1, 12]: 51.0 ± 19.0%
EF (emitted fraction) [1, 13]: 76.2 ± 4.1%
MMAD [1, 13]: 5.36 ± 0.53 μm
RF < 3 μm [1, 13]: 47.4 ± 3.7%
RF < 5 μm [1, 13]: 58.8 ± 4.7%
EF (emitted fraction) [2, 14]: 41.2 ± 4.1%
RF < 3 μm [2, 14]: 19.8 ± 2.2%
RF < 5 μm [2, 14]: 26.1 ± 3.1%
EF (emitted fraction) [2, 15]: 44.9 ± 16.1%
RF < 3 μm [2, 15]: 25.1 ± 10.9%
RF < 5 μm [2, 15]: 30.8 ± 12.6%
EF (emitted fraction) [4, 16]: 80.7 ± 9.7%
MMAD [4, 16]: 10.08 ± 7.79 μm
RF < 3 μm [4, 16]: 37.5 ± 18.2%
RF < 5 μm [4, 16]: 51.0 ± 19.0%
EF (emitted fraction) [4, 15]: 76.2 ± 4.1%
MMAD [4, 15]: 5.36 ± 0.53 μm
RF < 3 μm [4, 15]: 47.4 ± 3.7%
RF < 5 μm [4, 15]: 58.8 ± 4.7%
Structure (SMILES): CC(C)N=c1cc2n(-c3ccc(Cl)cc3)c3ccccc3nc-2cc1Nc1ccc(Cl)cc1 [Jet milled CFZ alone, N,5-bis(4-chlorophenyl)-3-(1-methylethylimino)-5H-phenazin-2-amine]
Intracellular drug accumulation with increasing doses ([3]; increasing doses of micronized CFZ): notable increase in intracellular drug accumulation
Change in intracellular bacterial burden with increasing doses ([3]; increasing doses of micronized CFZ, with AMK): no statistically significant changes
Intracellular Mab bacilli compared to the use of AMK alone ([3]; micronized CFZ particles added to media containing 40 μg/mL AMK): statistically significant reduction

X50 particle diameter [5]: 2.39 μm
X90 particle diameter [5]: 5.29 μm
solubility [7]: ≤ 800 µg/mL
Structure (SMILES): CC(C)N=c1cc2n(-c3ccc(Cl)cc3)c3ccccc3nc-2cc1Nc1ccc(Cl)cc1 [clofazimine, N,5-bis(4-chlorophenyl)-3-(1-methylethylimino)-5H-phenazin-2-amine]
Solubility in DMF and benzene ([6]; Merck Index): soluble
Solubility in acetone and ethyl acetate ([6]; Merck Index): sparingly soluble
Solubility in chloroform ([6]; Merck Index): 15 parts
Solubility in ethanol ([6]; Merck Index): 700 parts
Solubility in ether ([6]; Merck Index): 1000 parts
Solution concentration that can be formed in methanol ([6]; Sabnis et al., 2015): 0.1%
Solubility in water [6]: practically insoluble
Duration of administration necessary to reach steady-state concentrations [8]: At least 30 days
Patient population reporting at least one adverse drug effect [9]: 47.5%

— US20240299379A1, “COMPOSITIONS OF CLOFAZIMINE AND AMIKACIN FOR PULMONARY ADMINISTRATION IN THE TREATMENT OF RESPIRATORY DISEASES” (BOARD OF REGENTS, THE UNIVERSITY OF TEXAS SYSTEM, priority 2021, published 2024)
